From patent publication US9617517B2, “Small chemical compound which promotes induction of differentiation of stem cells into insulin-producing cells and method for inducing differentiation of stem cells into insulin-producing cells using said small chemical compound” (NATIONAL UNIVERSITY CORPORATION KUMAMOTO UNIVERSITY, priority 2011, dated 2017)
“Also recorded” adds a separate entry of the source.

Tests used:
Drd2KD cells = assay: Differentiation into insulin-producing cells in dopamine D2 receptor knock-down cell line; type: cell-based, mouse; settings: 0.63 μM reserpine, Drd2KD cells (FIG. 9B)
Procedure: In the Vmat2-knockdown and Drd2-knockdown assays, Expression Arrest non-silencing control shRNA (Open Biosystems, #RHS4080), Vmat2 hRNA (Open Biosystems, #RMM3981-97058457 and #RMM3981-97058458) or Drd2 hRNA (Open Biosystems, #RMM3981-9594258) lentiviral vectors were used. For virus preparation, HEK293-FT cells (Invitrogen) were seeded on a plate medium the day before transfection. After overnight culture, the cells were transfected with lentiviral vectors and ViraPower™ Lentiviral Packaging Mix (Invitrogen) using FuGENE6 Transfection Reagent (Roche) according to the manufacturer's protocol. Cells were incubated in the ES maintenance medium for 24 hours, and viral supernatants were collected. Then, SK7 cells were infected with the viral supernatants. After incubation for 24 hours, the virus-containing medium was replaced with fresh ES maintenance medium. Further 24 hours later, the infected cells were selected using […] puromycin. The surviving cells were cloned as a knockdown-cell lines.
To confirm that a dopamine signal suppresses the differentiation into insulin-expressing cells through activation of its receptor, a dopamine D2 receptor knock-down cell line, Drd2KD was established (FIG. 9A).

[1] = tested on: mouse ES cells (Pdx1/GFP); assay: Differentiation of mouse ES cells into insulin positive cells on nano fiber plate, immunostaining and quantitative image analysis; type: cell-based; settings: for effect on differentiation into insulin-expressing cells: compound added d11-d17, insulin staining d17 (FIG. 4, 5, 7, 8, 10)
Text: Two ES cell lines, one expressing green fluorescent protein (GFP) under the control of insulin 1 promoter, designed ING (Higuchi Y., Shiraki N., Yamane K, Qin Z., Mochitate K., Araki K., Senokuchi K., Yamagata K., Hara M., Kume K., and Kume S., Synthesized basement membranes direct the differentiation of mouse embryonic stem cells into pancreatic lineages. J. Cell Science, 123, 2733-2742, 2010), and the other one expressing GFP under the control of Pdx1 promoter, designated SK7 (Shiraki N, Yoshida T, Araki K, et al. Guided differentiation of embryonic stem cells into Pdx1-expressing regional-specific definitive endoderm. Stem Cells. 2008; 26:874-885), were used. Both cell lines were maintained on mouse embryonic fibroblast (MEF) feeders in Glasgow minimum essential medium (Invitrogen) containing 1000 units/ml leukemia inhibitory factor (LIF; Chemicon), 15% Knocked-out Serum Replacement (KSR; Gibco), 1% fetal bovine serum (FBS; Hyclone), 100 μM nonessential amino acids (NEAA; Invitrogen), 2 mM L-glutamine (L-Gln; Invitrogen), 1 mM sodium pyruvate (Invitrogen), 50 units/ml penicillin and 50 μg/ml streptomycin (PS; Invitrogen) and 100 μM β-mercaptoethanol (β-ME; Sigma), as ES maintenance medium.
For the differentiation studies, ES cells were plated at 5,000 cells per well in Corning 96 well plate with Ultra-Web Synthetic Polyamine Surface (#3873XX1, Corning Coster, Cambridge, Miss.), and cultured. The cells were cultured in Dulbecco's Modified Eagle Medium (DMEM: Invitrogen, Glasgow, UK) containing 4500 mg/L glucose, supplemented with NEAA, L-Gln, PS, β-ME, 10 μg/ml insulin (Sigma-Aldrich), 5.5 μg/ml transferrin (Sigma-Aldrich), 6.7 pg/ml selenium (Sigma-Aldrich), and 0.25% Albmax (Invitrogen), 10 ng/mL recombinant human activin-A (R&D Systems, Minneapolis, Minn.), 5 ng/mL; recombinant human bFGF for 7 days (d1-d7) (I of FIG. 1). And then, the medium was changed to RPMI 1640 medium (Invitrogen) containing 2000 mg/L glucose (Sigma, St Louis, Mo.), 1 μM Retinoic acid (Sigma-Aldrich), 50 ng/ml Human Recombinant Fibroblast Growth Factor-10 (Peprotech, Rocky Hill, N.J.), B27 SUPPLEMENT (Invitrogen) and 0.25 μM 3-Keto-N-(aminoethyl-aminocaproyl-dihydrocinnamoyl) cyclopamine Shh Signaling Antagonist II (Calbiochem, San Diego, Calif.) on d7 to d11 (II of FIG. 1). Finally, the medium was switched to DMEM containing 1000 mg/L glucose supplemented with NEAA, L-Gln, PS, β-ME, 10 μg/ml insulin (Sigma-Aldrich), 5.5 μg/ml transferrin (Sigma-Aldrich), 6.7 pg/ml selenium (Sigma-Aldrich), 0.25% Albmax (Invitrogen) and 10 mM nicotinamide (Sigma-Aldrich) on d11 to d17 (III of FIG. 1). Media were replaced every 2 days with fresh medium and growth factors until d17.
All tested small chemical compounds were solved in dimethyl sulfoxide (DMSO) at given concentration. Compounds were added on d11, d13 and d15 in a medium. Final concentration of DMSO was adjusted at 1.0% in all experiments for compounds.
After 17 days cell culture, cultured ES cells were fixed in 4% paraformaldehyde in PBS for 30 min at room temperature, and rinsed several times with PBS. Then, cells were incubated in the added diluted primary antibody in 20% Blocking One (Nacalai tesque, Tokyo, Japan) in PEST (0.1% Tween-20 in PBS) in a humidified chamber for overnight at 4° C. After washing the cells in PBST, cells were incubated with the secondary antibody in 20% Blocking One for 2 hr at room temperature in dark. After washing off the secondary antibody in PBST, cells were counterstained with […] (DAPI) (Roche Diagnostics). The following antibodies were used as First antibodies: Rabbit anti-GFP (MBL International Corp., Woburn, Mass.), Mouse anti-Insulin (Sigma). The following antibodies were used as Secondary antibodies: Alexa 568-conjugated, Alexa 488-conjugated antibodies (Invitrogen) Cells were counterstained with DAPI (Roche Diagnotics, Basel, Switzerland).

COC(=O)[C@H]1[C@H]2C[C@@H]3c4[nH]c5cc(OC)ccc5c4CCN3C[C@H]2C[C@@H](OC(=O)c2cc(OC)c(OC)c(OC)c2)[C@@H]1OC [Reserpine, reserpine]
promotion of differentiation into insulin-producing cells (Drd2KD cells): did not promote differentiation
hit confirmed by dose-responsiveness ([1]; 0.08 to 10 μM, SK7 ES cells): positive
effect on differentiation into insulin-expressing cells [1]: enhanced insulin-positive staining; also recorded: increased insulin-producing cells
effect on differentiation into insulin-expressing cells ([1]; listed as reserpine): concentration-dependent effect was observed
concentration of maximum effect on insulin positive cells ([1]; concentration-dependent test at 0 to 10 μM (FIG. 4)): 0.63 µM
effect on Pdx1 positive pancreatic precursor cells ([1]; reserpine 0.63 μM, Pargyline 1 μM (FIG. 6, 7)): did not change the number of pancreatic precursor cells
